Tests used:
Caco-2 cells [1] = assay: M-cell differentiation induction test, FACS analysis using GP2 as an indicator; assay type: cell-based, human; details: Caco-2 single-layer film, final concentration 100 μM, cultured 3 days; for expression of GP2 (FACS): vs DMSO control
Description: (§1) As an in vitro M-cell model, Caco-2 cells derived from human intestinal epithelium cells were used. The Caco-2 cells were cultured in an EMEM medium (produced by Nissui Pharmaceutical Co., Ltd.) supplemented with 2% fetal calf serum (FCS, produced by CANSERA INTERNATIONAL), 2 mM glutamine (produced by Wako Pure Chemical Industries, Ltd.), and 0.1 mM nonessential amino acid (produced by Gibco) at 37° C. in the presence of 5% CO2. The cells were subcultured within a range of logarithmic growth (2.0×10^5 to 1.0×10^6 cells/mL). The cell concentration was determined by counting the number of living cells and the number of dead cells by the trypan blue staining method.
The induction of the differentiation of M cells by various fatty acids (10-hydroxydecanoic acid, (+/−)-3-hydroxydecanoic acid, (9R)-9,10-dihydroxydecanoic acid, and 10-hydroxy-2-(E)-decenoic acid) was analyzed by FACS using GP2 as an indicator. As the 10-hydroxydecanoic acid (10HDAA), one produced by SIGMA-ALDRICH was used; as the (+/−)-3-hydroxydecanoic acid (311DAA), one produced by SIGMA-ALDRICH was used; and as the 10-hydroxy-2-(E)-decenoic acid (10-HDA), one produced by Wako Pure Chemical Industries, Ltd. was used. The (9R)-9,10-dihydroxydecanoic acid (DDA-11) used was, synthesized based on the method described in Tetrahedron: Asymmetry, 2009, 20, pp. 457-460, by tosylating (4R)-4-(2-hydroxyethyl)-2,2-dimethyl-1,3-dioxolane, and extending the chain with 5-bromo-1-pentene by a Grignard reaction, followed by ozone degradation, Wittig reaction with diethylphosphonic acid ethyl ester, hydrogenation by a catalytic hydrogenation reaction, removal of acetonide by acetic acid treatment, and removal of the ethyl group by potassium hydroxide treatment.
Each of the above fatty acids was prepared as a DMSO solution (10 mM). After the Caco-2 cells were seeded in a 6-well plate and allowed to form a single-layer film, each of the above fatty acids was added so that the final concentration was […]. The same amount of DMSO was added as a control. The medium was as described above. After addition, the cells were cultured at 37° C. in the presence of 5% CO2 for 3 days. After culture, the cells were collected with 1 mM EDTA.2Na/PBS(−) (pH 7.2), and stained with rabbit anti-GP2 antibody (produced by IMGENEX) and Alexa 488-labeled anti-rabbit antibody (produced by Molecular probes). The stained cells were analyzed by FACS (produced by BECKMAN COULTER), and GP2 expression levels were quantified.

cynomolgus monkeys = system: cynomolgus monkeys; parameters: species or system Macaca fascicularis; details: cynomolgus monkey, in vivo, po
Caco-2 cells [2] = assay: M-cell differentiation induction test, morphological analysis by electron microscope; assay type: cell-based, human; details: Caco-2 in Transwell insert, 100 μM applied from the apical side, 3 days
Description: as §1
After the Caco-2 cells were seeded at 2×10^5 cells in a Transwell insert ([…] Transwell, produced by Corning) and allowed to form a single-layer film, 10-hydroxydecanoic acid (final concentration: […]) was applied from the apical side of the single-layer film, and the cells were cultured at 37° C. in the presence of 5% CO2 for 3 days.

O=C(O)/C=C/CCCCCCCO [10-hydroxy-2-(E)-decenoic acid, reference compound]
expression of GP2 (FACS) (Caco-2 cells [1]): did not induce the expression of GP2

CCCCCCCC(O)CC(=O)O (racemic) [(+/−)-3-hydroxydecanoic acid]
expression of GP2 (FACS) (Caco-2 cells [1]): induced the expression of GP2

O=C(O)CCCCCCC[C@@H](O)CO [(9R)-9,10-dihydroxydecanoic acid, reference compound]
expression of GP2 (FACS) (Caco-2 cells [1]): did not induce the expression of GP2

O=C(O)CCCCCCCCCO [10-hydroxydecanoic acid]
anti-Fetuin IgA antibody titer in the feces (cynomolgus monkeys): increases | anti-influenza virus IgA antibody titer in the feces (cynomolgus monkeys): increases | anti-poliovirus IgA antibody titer in the feces (cynomolgus monkeys): increases | intensity of induction of GP2 expression compared with (+/−)-3-hydroxydecanoic acid (Caco-2 cells [1]): induced more intensely the expression of GP2 | expression of GP2 (FACS) (Caco-2 cells [1]): induced the expression of GP2 | cell morphology (microvilli, M cell-like cells) (Caco-2 cells [2]): cells with short microvilli were observed

From US20200093776A1, “MUCOSAL IMMUNOSTIMULATOR” (Yamada Bee Company, Inc., priority 2015, published 2020)
